Assay results taken from patent publication US20110070190A1 (Roche Palo Alto LLC, priority 2009, published 2011).

Experiments:
[1] = target: T1, HCV polymerase (NS5B570n-Con1) (Hepatitis C virus genotype 1b, UniProt Q9WMX2); assay: HCV NS5B RNA polymerase activity (incorporation of radiolabeled nucleotide into acid insoluble RNA); format: biochemical, HCV Con1 strain
T1 construct: a 21 amino acid C-terminal deletion of full-length HCV polymerase; made in house; host or cells: E. coli BL21(DE3) pLysS, plasmid pET17b
Procedure: The enzymatic activity of HCV polymerase (NS5B570n-Con1) was measured as the incorporation of radiolabeled nucleotide monophosphates into acid insoluble RNA products. Unincorporated radiolabeled substrate was removed by filtration and scintillant was added to the washed and dried filter plate containing radiolabeled RNA product. The amount of RNA product generated by NS5B570n-Con1 at the end of the reaction was directly proportional to the amount of light emitted by the scintillant.
The HCV polymerase used in the enzymatic activity assay is a 21 amino acid C-terminal deletion of full-length HCV polymerase derived from HCV Con1 strain, genotype 1b (GenBank accession number AJ242654) (NS5B570n-Con1). The NS5B570n-Con1 was sub-cloned downstream to the T7 promoter of the plasmid expression construct pET17b and transformed into E. coli strain BL21(DE3) pLysS for protein expression. A single colony was used to start an innoculum for a 10 L culture in LB media supplemented with 100 μg/mL ampicillin at 37° C. Protein expression was induced by the addition of 0.25 mM isopropyl-β-D-thiogalactopyranoside (IPTG) when the optical density of the culture at […] was 0.8. Induction of protein expression was carried out at 30° C. for 16 h after which the cells were harvested by centrifugation. NS5B570n-Con1 was purified to homogeneity using a three-column purification protocol including subsequent column chromatography on Ni-NTA, SP-Sepharose HP and Superdex 75 resins.
Enzymatic reactions in the presence of cIRES RNA template (see paragraph [00213]) contained 20 nM cIRES RNA, 20 nM NS5B570n-Con1 enzyme, 0.5 μCi of tritiated UTP (Perkin Elmer catalog no. TRK-412; specific activity: 30 to 60 Ci/mmol;), 1 μM each ATP, CTP, and GTP, 40 mM Tris-HCl pH 8.0, 40 mM NaCl, 4 mM DTT (dithiothreitol), 4 mM MgCl2, 5 μl of compound serial diluted in DMSO, and nuclease-free water to a final reaction volume of 50 μl. Enzymatic reactions in the presence of poly A RNA template (see paragraph [00213]) contained 20 nM Poly A:oligo(rU)16 premixed (see section 0004), 20 nM NS5B570n-Con1 enzyme, 1 μCi of tritiated UTP (Perkin Elmer catalog no. TRK-412; specific activity: 30 to 60 Ci/mmol), 40 mM Tris-HCl pH 8.0, 40 mM NaCl, 4 mM DTT (dithiothreitol), 4 mM MgCl2, 5 μl of compound serial diluted in DMSO, and nuclease-free water to a final reaction volume of 50 μl. Reaction mixtures were assembled in 96-well filter plates (cat #MADVN0B, Millipore Co.) and incubated for 2 h at 30° C. Reactions were stopped by addition of 10% final (v/v) trichloroacetic acid and incubated for 40 min at 4° C. Reactions were filtered, washed with 8 reaction volumes of 10% (v/v) trichloroacetic acetic acid, 4 reaction volumes of 70% (v/v) ethanol, air dried, and 25 μl of scintillant (Microscint 20, Perkin-Elmer) was added to each reaction well.
Two RNA templates were used to assay compounds described herein. The cIRES RNA template was 377 nucleotide long and consisted of a partial complementary sequence (36 nucleotides) of the core protein, followed by 341 nucleotide of the complementary sequence of the internal ribosome entry site. The poly A RNA template (GE Amersham catalog number 27-4110) was a homopolymeric RNA pre-annealed to a oligo(rU)16 primer at a molar ratio of 3-to-1 (primer-template).
The amount of light emitted from the scintillant was converted to counts per minute (CPM) on a Topcount® plate reader (Perkin-Elmer, Energy Range: Low, Efficiency Mode: Normal, Count Time: 1 min, Background Subtract: none, Cross talk reduction: Off).
Data was analyzed in Excel® (Microsoft®) and ActivityBase® (Idbs®). The reaction in the absence of enzyme was used to determine the background signal, which was subtracted from the enzymatic reactions. Positive control reactions were performed in the absence of compound, from which the background corrected activity was set as 100% polymerase activity. All data was expressed as a percentage of the positive control. […]

HCV = details: cited from earlier work

Compound	melting point	IC50 [1]	effect on serum levels of HCV-RNA (HCV; monotherapy / sole treatment)	patients with serum amino transferase levels reduced to normal (HCV; monotherapy)
O=c1ncn(Cc2ccc(Cl)cc2)c2cc(-c3ccc(OCc4ccccn4)c(Cl)c3)sc12 [Compound I-6, 1-(4-chloro-benzyl)-6-[3-chloro-4-(pyridin-2-ylmethoxy)-phenyl]-1H-thieno[3,2-d]pyrimidin-4-one]	272 to 274 °C	0.018 µM		
O=c1ncn(Cc2ccc(Cl)cc2)c2cc(-c3ccc(OCc4cnccn4)cc3)sc12 [Compound I-16, 1-(4-chloro-benzyl)-6-[4-(pyrazin-2-ylmethoxy)-phenyl]-1H-thieno[3,2-d]pyrimidin-4-one]	236.9 to 239.6 °C	0.071 µM		
Cc1ccc(Cn2cnc(=O)c3sc(-c4ccccc4)cc32)c(F)c1 [Compound I-21]	225.1 to 225.8 °C	0.126 µM		
Cc1ccc(Cn2cnc(=O)c3sc(-c4ccc(Cl)cc4)cc32)cc1 [Compound I-22]	244.1 to 247.5 °C	0.131 µM		
O=c1ncn(Cc2ccc(Cl)cc2)c2cc(-c3ccc(OCc4ccccn4)cc3)sc12 [Compound I-28, 1-(4-Chloro-benzyl)-6-[4-(pyridin-2-ylmethoxy)-phenyl]-1H-thieno[3,2-d]pyrimidin-4-one]	233 to 235 °C	0.051 µM		
Cc1ccc(Cn2cnc(=O)c3sc(-c4ccc(C(C)(C)C)cc4)cc32)cc1 [Compound I-29]	260.5 to 261.5 °C	0.223 µM		
O=C(Nc1ccc(-c2cc3c(s2)c(=O)ncn3Cc2ccc(Cl)cc2)nc1)c1ccccn1 [Compound I-40, Pyridine-2-carboxylic acid {6-[1-(4-chloro-benzyl)-4-oxo-1,4-dihydro-thieno[3,2-d]pyrimidin-6-yl]-pyridin-3-yl}-amide]		0.131 µM		
O=C(Nc1ccc(-c2cc3c(s2)c(=O)ncn3Cc2ccc(Cl)cc2)cn1)c1ccccn1 [Compound I-41, Pyridine-2-carboxylic acid {5-[1-(4-chloro-benzyl)-4-oxo-1,4-dihydro-thieno[3,2-d]pyrimidin-6-yl]-pyridin-2-yl}-amide]		0.062 µM		
Cc1cc(N)n2nc(-c3ccc(-c4cc5c(s4)c(=O)ncn5Cc4ccc(Cl)cc4)cn3)cc2n1 [Compound I-42, 6-[6-(7-Amino-5-methyl-pyrazolo[1,5-a]pyrimidin-2-yl)-pyridin-3-yl]-1-(4-chloro-benzyl)-1H-thieno[3,2-d]pyrimidin-4-one]		0.019 µM		
Cc1cc(N)n2nc(-c3ccc(-c4cc5c(s4)c(=O)ncn5C[C@H]4CC[C@H](C)CC4)cn3)cc2n1 [Compound I-43, 6-[6-(7-Amino-5-methyl-pyrazolo[1,5-a]pyrimidin-2-yl)-pyridin-3-yl]-1-(4-methyl-cyclohexylmethyl)-1H-thieno[3,2-d]pyrimidin-4-one]		0.428 µM		
O=c1ncn(Cc2ccc(Cl)cc2)c2cc(-c3ccc(OCc4ccccc4)c(Cl)c3)sc12 [Compound I-44, 6-(4-Benzyloxy-3-chloro-phenyl)-1-(4-chloro-benzyl)-1H-thieno[3,2-d]pyrimidin-4-one]	222 to 224 °C	0.03 µM		
Cc1cc(N)nc(COc2ccc(-c3cc4c(s3)c(=O)ncn4Cc3ccc(Cl)cc3)cc2)n1 [Compound I-45, 6-[4-(4-Amino-6-methyl-pyrimidin-2-ylmethoxy)-phenyl]-1-(4-chloro-benzyl)-1H-thieno[3,2-d]pyrimidin-4-one]	272 to 274 °C	0.372 µM		
O=C(Nc1ccc(-c2cc3c(s2)c(=O)ncn3Cc2ccc(Cl)cc2)cc1)c1ccc(O)cn1 [Compound I-46, 5-Hydroxy-pyridine-2-carboxylic acid, {4-[1-(4-chloro-benzyl)-4-oxo-1,4-dihydro-thieno[3,2-d]pyrimidin-6-yl]-phenyl}-amide]		0.017 µM		
O=C(Nc1ccccc1)c1ccc(-c2cc3c(s2)c(=O)ncn3Cc2ccc(Cl)cc2)cc1 [Compound I-47, 4-[1-(4-Chloro-benzyl)-4-oxo-1,4-dihydro-thieno[3,2-d]pyrimidin-6-yl]-N-phenyl-benzamide]		~0.04 µM		
O=c1ncn(Cc2ccc(Cl)cc2)c2cc(-c3ccc(SCc4ccccn4)cc3)sc12 [Compound I-48, 1-(4-Chloro-benzyl)-6-[4-(pyridin-2-ylmethylsulfanyl)-phenyl]-1H-thieno[3,2-d]pyrimidin-4-one]		0.163 µM		
O=c1ncn(Cc2ccc(Cl)cc2)c2cc(-c3ccc(NCc4ccccc4)cc3)sc12 [Compound I-49, 6-(4-Benzylamino-phenyl)-1-(4-chloro-benzyl)-1H-thieno[3,2-d]pyrimidin-4-one]		0.377 µM		
O=c1ncn(Cc2ccc(Cl)cc2)c2cc(-c3ccc(OCc4cccnc4)cc3)sc12 [Compound I-50, 1-(4-Chloro-benzyl)-6-[4-(pyridin-3-ylmethoxy)-phenyl]-1H-thieno[3,2-d]pyrimidin-4-one]	255 to 257 °C	0.103 µM		
O=c1ncn(Cc2ccc(Cl)cc2)c2cc(-c3ccc(SCc4cccnc4)cc3)sc12 [Compound I-51, 1-(4-Chloro-benzyl)-6-[4-(pyridin-3-ylmethylsulfanyl)-phenyl]-1H-thieno[3,2-d]pyrimidin-4-one]		0.313 µM		
N#Cc1ccc(-c2cc3c(s2)c(=O)ncn3Cc2ccc(Cl)cc2)cc1 [Compound I-52, 4-[1-(4-Chloro-benzyl)-4-oxo-1,4-dihydro-thieno[3,2-d]pyrimidin-6-yl]-benzonitrile]	> 300 °C	1.6 µM		
Cc1ccc(Cn2cnc(=O)c3sc(-c4ccc(CO)cc4)cc32)cc1 [Compound I-53, 6-(4-Hydroxymethyl-phenyl)-1-(4-methyl-benzyl)-1H-thieno[3,2-d]pyrimidin-4-one]		0.56 µM		
O=C(Nc1ccc(-c2cc3c(s2)c(=O)ncn3Cc2ccc(Cl)cc2)cc1)N1CCCC1 [Compound I-54, Pyrrolidine-1-carboxylic acid {4-[1-(4-chloro-benzyl)-4-oxo-1,4-dihydro-thieno[3,2-d]pyrimidin-6-yl]-phenyl}-amide]		0.076 µM		
CC(C)C(=O)Nc1ccc(-c2cc3c(s2)c(=O)ncn3Cc2ccc(Cl)cc2)cc1F [Compound I-55]		1.79 µM		
O=c1ncn(Cc2ccc(Cl)cc2)c2cc(-c3ccc(N4CCCC4)cc3)sc12 [Compound I-56, 1-(4-Chloro-benzyl)-6-(4-pyrrolidin-1-yl-phenyl)-1H-thieno[3,2-d]pyrimidin-4-one]		1.61 µM		
Cc1ccc(Cn2cnc(=O)c3sc(-c4ccc(-c5cc6ncccn6n5)cc4)cc32)cc1 [Compound I-57, 1-(4-Methyl-benzyl)-6-(4-pyrazolo[1,5-a]pyrimidin-2-yl-phenyl)-1H-thieno[3,2-d]pyrimidin-4-one]		0.108 µM		
O=c1ncn(Cc2ccc(Cl)cc2)c2cc(-c3ccc(OCc4ccncc4)cc3)sc12 [Compound I-58]	257 to 259 °C	0.049 µM		
O=c1ncn(Cc2ccc(Cl)cc2)c2cc(-c3ccc(SCc4ccncc4)cc3)sc12 [Compound I-59]		0.167 µM		
NC(=O)c1ncn([C@@H]2O[C@H](CO)[C@@H](O)[C@H]2O)n1 [ribavirin, 1-((2R,3R,4S,5R)-3,4-Dihydroxy-5-hydroxymethyl-tetrahydro-furan-2-yl)-1H-[1,2,4]triazole-3-carboxylic acid amide]			does not lower serum levels of HCV-RNA	40%
